Measurements published in patent US11712434B2, “Compound having anti-cancer effect, and preparation method therefor and use thereof” (3D MEDICINES (BEIJING) CO., LTD., priority 2016, dated 2023).

What was measured:
Format in all cases: cell-based
22RV1 = experiment: Cell proliferation assay (Alamar Blue); conditions: 22RV1 tumor cell line, 6 days culture
Procedure, shortened: (§1)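 Six-day continuous exposure of log-phase cells to a 9-point compound series (3.16-fold steps from 100 or 30 μM). Residual viability was read by AlamarBlue fluorescence at 560/590 nm. IC50 came from four-parameter curve fitting.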

Alexander cells = experiment: Cell proliferation assay (Alamar Blue); conditions: Alexander cells liver cancer cell line, 6 days culture
Procedure, shortened: as §1

CCRF-CEM = experiment: Cell proliferation assay (Alamar Blue); conditions: CCRF-CEM tumor cell line, 6 days culture
Procedure, shortened: as §1

DU145 = experiment: Cell proliferation assay (Alamar Blue); conditions: DU145 tumor cell line, 6 days culture
Procedure, shortened: as §1

HCCLM3 = experiment: Cell proliferation assay (Alamar Blue); conditions: HCCLM3 tumor cell line, 6 days culture
Procedure, shortened: as §1

HEPG2 = experiment: Cell proliferation assay (Alamar Blue); conditions: HEPG2 liver cancer cell line, 6 days culture
Procedure, shortened: as §1

HLF = experiment: Cell proliferation assay (Alamar Blue); conditions: HLF liver cancer cell line, 6 days culture
Procedure, shortened: as §1

HUH1 = experiment: Cell proliferation assay (Alamar Blue); conditions: HUH1 liver cancer cell line, 6 days culture
Procedure, shortened: as §1

HUH7 = experiment: Cell proliferation assay (Alamar Blue); conditions: HUH7 liver cancer cell line, 6 days culture
Procedure, shortened: as §1

Hep3B2.1-7 = experiment: Cell proliferation assay (Alamar Blue); conditions: Hep3B2.1-7 liver cancer cell line, 6 days culture
Procedure, shortened: as §1

JHH6 = experiment: Cell proliferation assay (Alamar Blue); conditions: JHH6 liver cancer cell line, 6 days culture
Procedure, shortened: as §1

KASUMI-1 = experiment: Cell proliferation assay (Alamar Blue); conditions: KASUMI-1 (leukemia cells), 6 days culture
Procedure, shortened: as §1

LC-2-ad = experiment: Cell proliferation assay (Alamar Blue); conditions: LC-2-ad tumor cell line, 6 days culture
Procedure, shortened: as §1

LNCAP-clone-FGC = experiment: Cell proliferation assay (Alamar Blue); conditions: LNCAP-clone-FGC tumor cell line, 6 days culture
Procedure, shortened: as §1

Li-7 = experiment: Cell proliferation assay (Alamar Blue); conditions: Li-7 liver cancer cell line, 6 days culture
Procedure, shortened: as §1

MFM-223 = experiment: Cell proliferation assay (Alamar Blue); conditions: MFM-223 tumor cell line, 6 days culture
Procedure, shortened: as §1

NCI-H1648 = experiment: Cell proliferation assay (Alamar Blue); conditions: NCI-H1648 tumor cell line, 6 days culture
Procedure, shortened: as §1

NCI-H1703 = experiment: Cell proliferation assay (Alamar Blue); conditions: NCI-H1703 (lung cancer cells), 6 days culture
Procedure, shortened: as §1

NCI-H526 = experiment: Cell proliferation assay (Alamar Blue); conditions: NCI-H526 tumor cell line, 6 days culture
Procedure, shortened: as §1

NCI-H661 = experiment: Cell proliferation assay (Alamar Blue); conditions: NCI-H661 tumor cell line, 6 days culture
Procedure, shortened: as §1

NCI-H716 = experiment: Cell proliferation assay (Alamar Blue); conditions: NCI-H716 tumor cell line, 6 days culture
Procedure, shortened: as §1

SNU182 = experiment: Cell proliferation assay (Alamar Blue); conditions: SNU182 liver cancer cell line, 6 days culture
Procedure, shortened: as §1

SNU387 = experiment: Cell proliferation assay (Alamar Blue); conditions: SNU387 liver cancer cell line, 6 days culture
Procedure, shortened: as §1

SNU398 = experiment: Cell proliferation assay (Alamar Blue); conditions: SNU398 liver cancer cell line, 6 days culture
Procedure, shortened: as §1

SNU739 = experiment: Cell proliferation assay (Alamar Blue); conditions: SNU739 liver cancer cell line, 6 days culture
Procedure, shortened: as §1

SW620 = experiment: Cell proliferation assay (Alamar Blue); conditions: SW620 tumor cell line, 6 days culture
Procedure, shortened: as §1

[1] = tested on: 26 liver cancer cell lines; experiment: Cell proliferation assay (Alamar Blue), liver cancer panel summary; conditions: almost all liver cancer cells
Protocol: 1. Instruments and Materials • Thermo 311 CO2 incubator; Haier biosafety cabinet; Molecular Devices microplate reader; Xiangyi brand L530 desktop low speed centrifuge; Olympus IX51 inverted fluorescence microscope, DMEM, RPMI 1640, MEM, DMEM/F12 1:1 medium, Fetal bovine serum, 0.25% trypsin solution, phosphate buffer (Thermo Fisher Shanghai Co., Ltd.); sigma dimethyl sulfoxide (DMSO), resazurin; 54 commercial tumor cell lines (including 26 liver cancer cell lines). Experimental drugs: compounds 1-12 and active drug Linifanib; chemotherapeutic drug Doxorubicin (HY-15142; Shanghai Qianyuan Biomedical Technology Co., Ltd.).
2. […] The proportion and quantity of passage were determined by experimental needs. The ratio of subculture of this cell line was generally 1:2^˜1:3. • 2.2 Inhibition Effect on the Proliferation of Different Tumor Cell Lines • Cell test: 54 cell lines in logarithmic growth phase were inoculated in 96-well culture plates at 500^˜1×10^4/well (the optimal seeding density of each cell line was determined in pre-experiment), After incubating at 37° C. for 4 h in a 5% CO2 humidification incubator, added 10 μL of compounds 1-12 or Linifanib to each well, and tested 9 drug concentration gradients for each compound (diluted from the highest concentration of the test by 3.16 times). […]

SMILES: Cc1ccc(F)c(NC(=O)Nc2ccc(-c3cccc4[nH]nc(NC(=O)C[C@H](N)C(=O)O)c34)cc2)c1 [Compound 10]
- IC50 (22RV1; Homo sapiens, 144 h): 6.37 µM
- IC50 (Alexander cells; 144 h): 3.79 µM
- IC50 (CCRF-CEM; Homo sapiens, 144 h): 5.46 µM
- IC50 (DU145; Homo sapiens, DU-145, 144 h): 3.62 µM
- IC50 (HCCLM3; Homo sapiens, 144 h): 7.76 µM
- IC50 (HEPG2; Homo sapiens, 144 h): 0.97 µM
- IC50 (HLF; 144 h): 4.85 µM
- IC50 (HUH1; Homo sapiens, HuH-1, 144 h): 3.88 µM
- IC50 (HUH7; Homo sapiens, Huh-7, 144 h): 2.24 µM
- IC50 (Hep3B2.1-7; 144 h): 2.43 µM
- IC50 (JHH6; 144 h): 5.38 µM
- IC50 (KASUMI-1; Homo sapiens, 144 h): 0.01 µM
- IC50 (LC-2-ad; Homo sapiens, 144 h): 3.33 µM
- IC50 (LNCAP-clone-FGC; Homo sapiens, 144 h): 14.8 µM
- IC50 (Li-7; 144 h): 5.28 µM
- IC50 (MFM-223; Homo sapiens, 144 h): 2.64 µM
- IC50 (NCI-H1648; Homo sapiens, 144 h): 7.42 µM
- IC50 (NCI-H1703; Homo sapiens, 144 h): 0.02 µM
- IC50 (NCI-H526; Homo sapiens, 144 h): 6.93 µM
- IC50 (NCI-H661; Homo sapiens, 144 h): 18 µM
- IC50 (NCI-H716; Homo sapiens, 144 h): 5.09 µM
- IC50 (SNU182; Homo sapiens, SNU-182, 144 h): 22.1 µM
- IC50 (SNU387; Homo sapiens, SNU-387, 144 h): 20.1 µM
- IC50 (SNU398; Homo sapiens, SNU-398, 144 h): 1.64 µM
- IC50 (SNU739; SNU-739, 144 h): 5.29 µM
- IC50 (SW620; Homo sapiens, SW-620, 144 h): 3.46 µM

SMILES: Cc1ccc(F)c(NC(=O)Nc2ccc(-c3cccc4[nH]nc(NC(=O)CCCCCNC(=O)C[C@H](N)C(=O)O)c34)cc2)c1 [Compound 11]
- IC50 (22RV1): > 100 µM
- IC50 (Alexander cells): > 100 µM
- IC50 (CCRF-CEM): > 100 µM
- IC50 (DU145): > 100 µM
- IC50 (HCCLM3): > 100 µM
- IC50 (HEPG2): 30.1 µM
- IC50 (HLF): 95.7 µM
- IC50 (HUH1): > 100 µM
- IC50 (HUH7): > 100 µM
- IC50 (Hep3B2.1-7): > 100 µM
- IC50 (JHH6): > 100 µM
- IC50 (KASUMI-1): 1.09 µM
- IC50 (LC-2-ad): > 100 µM
- IC50 (LNCAP-clone-FGC): > 100 µM
- IC50 (Li-7): > 100 µM
- IC50 (MFM-223): > 100 µM
- IC50 (NCI-H1648): > 100 µM
- IC50 (NCI-H1703): 0.83 µM
- IC50 (NCI-H526): > 100 µM
- IC50 (NCI-H661): > 100 µM
- IC50 (NCI-H716): 67.4 µM
- IC50 (SNU182): > 100 µM
- IC50 (SNU387): > 100 µM
- IC50 (SNU398): > 100 µM
- IC50 (SNU739): > 100 µM
- IC50 (SW620): > 100 µM

SMILES: Cc1ccc(F)c(NC(=O)Nc2ccc(-c3cccc4[nH]nc(NC(=O)CCCCCCCCCCCNC(=O)C[C@H](N)C(=O)O)c34)cc2)c1 [Compound 12]
- IC50 (22RV1): 95.6 µM
- IC50 (Alexander cells): 77.1 µM
- IC50 (CCRF-CEM): > 100 µM
- IC50 (DU145): 83 µM
- IC50 (HCCLM3): > 100 µM
- IC50 (HEPG2): 9.27 µM
- IC50 (HLF): > 100 µM
- IC50 (HUH1): > 100 µM
- IC50 (HUH7): 40.6 µM
- IC50 (Hep3B2.1-7): 79.6 µM
- IC50 (JHH6): 85.8 µM
- IC50 (KASUMI-1): 0.49 µM
- IC50 (LC-2-ad): 22.9 µM
- IC50 (LNCAP-clone-FGC): 70.5 µM
- IC50 (Li-7): 90.4 µM
- IC50 (MFM-223): 53.4 µM
- IC50 (NCI-H1648): > 100 µM
- IC50 (NCI-H1703): 0.25 µM
- IC50 (NCI-H526): > 100 µM
- IC50 (NCI-H661): > 100 µM
- IC50 (NCI-H716): 35.5 µM
- IC50 (SNU182): > 100 µM
- IC50 (SNU387): > 100 µM
- IC50 (SNU398): > 100 µM
- IC50 (SNU739): > 100 µM
- IC50 (SW620): 55.6 µM
- response of liver cancer cells [1]: did not respond
